In ChEMBL document CHEMBL1157399, “Antioxidant 2-phenylbenzofurans and a coumestan from Lespedeza virgata” (J Nat Prod, 2008):

How the values were obtained:
[1] = Antioxidant activity against 2,2'-azobis (2-amidinopropane) dihydrochloride-induced fluorescence decay at 1.5 uM assessed as trolox equivalents by ORAC-fluorescence assay; type: functional
[2] = Antioxidant activity assessed as oxygen radical scavenging activity by ORAC-fluorescence assay; type: functional
Kidney = assay: Inhibition of lipid peroxidation in renal failured rat kidney homogenate assessed as inhibition of malondialdehyde level by TBARS assay; type: functional, tissue-based
Plasma = assay: Inhibition of lipid peroxidation in renal failured rat plasma assessed as inhibition of malondialdehyde level by TBARS assay; type: functional, cell-free

Row | Structure (SMILES) | Activity [1] | Activity [2] | IC50 (Kidney) | IC50 (Plasma)
1 | O=C1O[C@H]([C@@H](O)CO)C(O)=C1O [ASCORBIC ACID] | 165 | Dose-dependent effect | 3050 µM | 5540 µM
2 | COc1c(CCC(C)(C)O)c(O)cc2oc(=O)c3c4cc(O)c(O)cc4oc3c12 [LESPEDEZACOUMESTAN] | 450 | Dose-dependent effect | 450 µM | 190 µM
3 | COc1cc(OC)c(-c2oc3cc(O)c(O)cc3c2C=O)c(OC)c1 [LESPEDEZAVIRGATAL] | 189 | Dose-dependent effect | 640 µM | 750 µM
4 | COc1ccc(O)c(-c2cc3ccc(O)c(OC)c3o2)c1OC [LESPEDEZAVIRGATOL] | 763 | Dose-dependent effect | 160 µM | 180 µM
